Experimental data from ChEMBL document CHEMBL1201862, “PubChem BioAssay data set” (2004).
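Step 1: Grow cells in 96-well plates. Step 2: Expose to compound for 48 hours at 5 concentrations. Step 3: Interpolate endpoints linearly; if unreached, use highest concentration. GI50 marks 50% less growth.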 The source made the active and inactive calls. Cut-off read from the data, not from the text of the source: active = GI50 up to about 1.1 µM and inactive = higher.

What was measured:
Assay in all cases: inhibition of tumour cell growth, NCI panel, 48 h
HOP-62 = test system: HOP-62
PC-3 = test system: PC-3
SK-OV-3 = test system: SK-OV-3
MOLT-4 = test system: MOLT-4
UO-31 = test system: UO-31
Hs-578T = test system: Hs-578T
K562 = test system: K562
TK-10 = test system: TK-10
MDA-N = test system: MDA-N
RPMI-8226 = test system: RPMI-8226
SF-539 = test system: SF-539
NCI-H226 = test system: NCI-H226
OVCAR-8 = test system: OVCAR-8
SF-268 = test system: SF-268
SNB-75 = test system: SNB-75
HL-60 = test system: HL-60
OVCAR-4 = test system: OVCAR-4
MCF7 = test system: MCF7
SK-MEL-2 = test system: SK-MEL-2
SW-620 = test system: SW-620

Structure (SMILES): N#CC(NNC(=O)c1ccccc1O)c1c(O)ccc2ccccc12 (stereo not given)
- GI50 (HOP-62): 3.33 µM (inactive)
- GI50 (PC-3): 4.03 µM (inactive)
- GI50 (SK-OV-3): 4.68 µM (inactive)
- GI50 (MOLT-4): 2.26 µM (inactive)
- GI50 (UO-31): 2.92 µM (inactive)
- GI50 (Hs-578T): 17.3 µM (inactive)
- GI50 (K562): 2.9 µM (inactive)
- GI50 (TK-10): 4.7 µM (inactive)
- GI50 (MDA-N): 5.16 µM (inactive)
- GI50 (RPMI-8226): 3.48 µM (inactive)
- GI50 (SF-539): 4.63 µM (inactive)
- GI50 (NCI-H226): 3.71 µM (inactive)
- GI50 (OVCAR-8): 3.16 µM (inactive)
- GI50 (SF-268): 3.24 µM (inactive)
- GI50 (SNB-75): 7.31 µM (inactive)
- GI50 (HL-60): 0.713 µM (active)
- GI50 (OVCAR-4): 2.58 µM (inactive)
- GI50 (MCF7): 4.5 µM (inactive)
- GI50 (SK-MEL-2): 3.72 µM (inactive)
- GI50 (SW-620): 4.3 µM (inactive)

Structure (SMILES): c1ccc2c(c1)[nH]c1c3ccccc3sc21
- GI50 (HOP-62): > 100 µM (inactive)
- GI50 (PC-3): > 100 µM (inactive)
- GI50 (SK-OV-3): > 100 µM (inactive)
- GI50 (MOLT-4): > 100 µM (inactive)
- GI50 (UO-31): > 100 µM (inactive)
- GI50 (Hs-578T): > 100 µM (inactive)
- GI50 (K562): > 100 µM (inactive)
- GI50 (TK-10): > 100 µM (inactive)
- GI50 (MDA-N): > 100 µM (inactive)
- GI50 (RPMI-8226): > 100 µM (inactive)
- GI50 (SF-539): > 100 µM (inactive)
- GI50 (NCI-H226): > 100 µM (inactive)
- GI50 (OVCAR-8): > 100 µM (inactive)
- GI50 (SF-268): > 100 µM (inactive)
- GI50 (SNB-75): 8.41 µM (inactive)
- GI50 (HL-60): > 100 µM (inactive)
- GI50 (OVCAR-4): > 100 µM (inactive)
- GI50 (MCF7): 24.9 µM (inactive)
- GI50 (SK-MEL-2): > 100 µM (inactive)
- GI50 (SW-620): > 100 µM (inactive)

Structure (SMILES): C[C@H](CCC1=NCCN1)[C@H]1CC[C@H]2[C@@H]3CC[C@@H]4C[C@H](O)CC[C@]4(C)[C@H]3C[C@H](O)[C@]12C
- GI50 (HOP-62): 15.5 µM (inactive)
- GI50 (PC-3): 4.57 µM (inactive)
- GI50 (SK-OV-3): 18 µM (inactive)
- GI50 (MOLT-4): 3.13 µM (inactive)
- GI50 (UO-31): 18.6 µM (inactive)
- GI50 (Hs-578T): 11.4 µM (inactive)
- GI50 (K562): 5.38 µM (inactive)
- GI50 (TK-10): 14 µM (inactive)
- GI50 (MDA-N): 14.6 µM (inactive)
- GI50 (RPMI-8226): 11.3 µM (inactive)
- GI50 (SF-539): 13.2 µM (inactive)
- GI50 (NCI-H226): 14.3 µM (inactive)
- GI50 (OVCAR-8): 15.5 µM (inactive)
- GI50 (SF-268): 7.36 µM (inactive)
- GI50 (SNB-75): 2.37 µM (inactive)
- GI50 (HL-60): 10.8 µM (inactive)
- GI50 (OVCAR-4): 15.9 µM (inactive)
- GI50 (MCF7): 12.7 µM (inactive)
- GI50 (SK-MEL-2): 13.8 µM (inactive)
- GI50 (SW-620): 19.9 µM (inactive)

Structure (SMILES): O=C(O)/C=N\N=c1[nH]c2ccccc2[nH]1
- GI50 (HOP-62): > 100 µM (inactive)
- GI50 (PC-3): > 100 µM (inactive)
- GI50 (SK-OV-3): > 100 µM (inactive)
- GI50 (MOLT-4): > 100 µM (inactive)
- GI50 (UO-31): > 100 µM (inactive)
- GI50 (Hs-578T): > 100 µM (inactive)
- GI50 (K562): > 100 µM (inactive)
- GI50 (TK-10): > 100 µM (inactive)
- GI50 (MDA-N): > 100 µM (inactive)
- GI50 (RPMI-8226): > 100 µM (inactive)
- GI50 (SF-539): > 100 µM (inactive)
- GI50 (NCI-H226): > 100 µM (inactive)
- GI50 (OVCAR-8): > 100 µM (inactive)
- GI50 (SF-268): > 100 µM (inactive)
- GI50 (SNB-75): > 100 µM (inactive)
- GI50 (HL-60): > 100 µM (inactive)
- GI50 (OVCAR-4): > 100 µM (inactive)
- GI50 (MCF7): 49.2 µM (inactive)
- GI50 (SK-MEL-2): > 100 µM (inactive)
- GI50 (SW-620): > 100 µM (inactive)

Structure (SMILES): Oc1cc(-c2ccccc2Cl)nc2cc3c(cc12)OCO3
- GI50 (HOP-62): 0.132 µM (active)
- GI50 (PC-3): 0.0451 µM (active)
- GI50 (SK-OV-3): 0.17 µM (active)
- GI50 (MOLT-4): 0.123 µM (active)
- GI50 (UO-31): 0.224 µM (active)
- GI50 (Hs-578T): 0.44 µM (active)
- GI50 (K562): 0.0399 µM (active)
- GI50 (TK-10): 0.731 µM (active)
- GI50 (MDA-N): 0.0158 µM (active)
- GI50 (RPMI-8226): 0.101 µM (active)
- GI50 (SF-539): 0.103 µM (active)
- GI50 (NCI-H226): 0.13 µM (active)
- GI50 (OVCAR-8): 0.198 µM (active)
- GI50 (SF-268): 1.64 µM (inactive)
- GI50 (SNB-75): 30.7 µM (inactive)
- GI50 (HL-60): 0.0207 µM (active)
- GI50 (OVCAR-4): 2.76 µM (inactive)
- GI50 (MCF7): 0.0518 µM (active)
- GI50 (SK-MEL-2): 0.0719 µM (active)
- GI50 (SW-620): 0.0698 µM (active)

Structure (SMILES): C/C(=N\NC(=S)N1CCN(c2ccccn2)CC1)c1nccs1
- GI50 (HOP-62): 1.19 µM (inactive)
- GI50 (PC-3): 0.0548 µM (active)
- GI50 (SK-OV-3): 1.61 µM (inactive)
- GI50 (MOLT-4): < 0.0225 µM (active)
- GI50 (UO-31): 0.516 µM (active)
- GI50 (Hs-578T): 2.8 µM (inactive)
- GI50 (K562): 0.01 µM (active)
- GI50 (TK-10): 1.91 µM (inactive)
- GI50 (MDA-N): 0.431 µM (active)
- GI50 (RPMI-8226): 0.01 µM (active)
- GI50 (SF-539): 0.524 µM (active)
- GI50 (NCI-H226): 0.955 µM (active)
- GI50 (OVCAR-8): 0.258 µM (active)
- GI50 (SF-268): 0.794 µM (active)
- GI50 (SNB-75): 2.82 µM (inactive)
- GI50 (HL-60): 0.01 µM (active)
- GI50 (OVCAR-4): 1.03 µM (active)
- GI50 (MCF7): 0.00665 µM (active)
- GI50 (SK-MEL-2): 1.83 µM (inactive)
- GI50 (SW-620): 0.279 µM (active)

Structure (SMILES): N#CC1=C(N)N(/N=C/c2ccco2)C(c2ccco2)C1(C#N)C#N (stereo not given)
- GI50 (HOP-62): 23.2 µM (inactive)
- GI50 (PC-3): 23 µM (inactive)
- GI50 (SK-OV-3): 33.7 µM (inactive)
- GI50 (MOLT-4): 11.9 µM (inactive)
- GI50 (UO-31): 18.6 µM (inactive)
- GI50 (Hs-578T): 22.2 µM (inactive)
- GI50 (K562): 5.7 µM (inactive)
- GI50 (TK-10): 17.4 µM (inactive)
- GI50 (MDA-N): 18.4 µM (inactive)
- GI50 (RPMI-8226): 20.8 µM (inactive)
- GI50 (SF-539): 22.1 µM (inactive)
- GI50 (NCI-H226): 18.6 µM (inactive)
- GI50 (OVCAR-8): 19.7 µM (inactive)
- GI50 (SF-268): 24.6 µM (inactive)
- GI50 (SNB-75): 16.8 µM (inactive)
- GI50 (HL-60): 3.35 µM (inactive)
- GI50 (OVCAR-4): 15.4 µM (inactive)
- GI50 (MCF7): 20.5 µM (inactive)
- GI50 (SK-MEL-2): 24.1 µM (inactive)
- GI50 (SW-620): 11.2 µM (inactive)

Structure (SMILES): C[N+](C)([O-])C12CC3CC(CC(C3)C1)C2
- GI50 (HOP-62): 24 µM (inactive)
- GI50 (PC-3): 22.4 µM (inactive)
- GI50 (SK-OV-3): 61.9 µM (inactive)
- GI50 (MOLT-4): 29.3 µM (inactive)
- GI50 (UO-31): 13.9 µM (inactive)
- GI50 (Hs-578T): 55.6 µM (inactive)
- GI50 (K562): 29.4 µM (inactive)
- GI50 (TK-10): 20.9 µM (inactive)
- GI50 (MDA-N): 31.8 µM (inactive)
- GI50 (RPMI-8226): 29.9 µM (inactive)
- GI50 (SF-539): 23.4 µM (inactive)
- GI50 (NCI-H226): 55.2 µM (inactive)
- GI50 (OVCAR-8): 40.1 µM (inactive)
- GI50 (SF-268): 38.3 µM (inactive)
- GI50 (SNB-75): 28.2 µM (inactive)
- GI50 (HL-60): 44.6 µM (inactive)
- GI50 (OVCAR-4): 33.1 µM (inactive)
- GI50 (MCF7): 33.1 µM (inactive)
- GI50 (SK-MEL-2): 22.6 µM (inactive)
- GI50 (SW-620): 41.8 µM (inactive)

Structure (SMILES): O=C1/C(=C/c2ccc(O)cc2)CCC1CNc1ccc(Cl)cc1 (stereo not given)
- GI50 (HOP-62): 7.43 µM (inactive)
- GI50 (PC-3): 1.42 µM (inactive)
- GI50 (SK-OV-3): 5.14 µM (inactive)
- GI50 (MOLT-4): 1.71 µM (inactive)
- GI50 (UO-31): 3.01 µM (inactive)
- GI50 (Hs-578T): 17.7 µM (inactive)
- GI50 (K562): 0.25 µM (active)
- GI50 (TK-10): 1.72 µM (inactive)
- GI50 (MDA-N): 6.53 µM (inactive)
- GI50 (RPMI-8226): 0.755 µM (active)
- GI50 (SF-539): 6.37 µM (inactive)
- GI50 (NCI-H226): 12.6 µM (inactive)
- GI50 (OVCAR-8): 1.38 µM (inactive)
- GI50 (SF-268): 3.2 µM (inactive)
- GI50 (SNB-75): 15.6 µM (inactive)
- GI50 (HL-60): 0.861 µM (active)
- GI50 (OVCAR-4): 2.96 µM (inactive)
- GI50 (MCF7): 1.34 µM (inactive)
- GI50 (SK-MEL-2): 14.4 µM (inactive)
- GI50 (SW-620): 1.37 µM (inactive)

Structure (SMILES): CC(=O)Nc1[nH]c(C#N)nc1C#N
- GI50 (HOP-62): > 100 µM (inactive)
- GI50 (PC-3): > 100 µM (inactive)
- GI50 (SK-OV-3): > 100 µM (inactive)
- GI50 (MOLT-4): > 100 µM (inactive)
- GI50 (UO-31): > 100 µM (inactive)
- GI50 (Hs-578T): > 100 µM (inactive)
- GI50 (K562): > 100 µM (inactive)
- GI50 (TK-10): > 100 µM (inactive)
- GI50 (MDA-N): > 100 µM (inactive)
- GI50 (RPMI-8226): > 100 µM (inactive)
- GI50 (SF-539): > 100 µM (inactive)
- GI50 (NCI-H226): > 100 µM (inactive)
- GI50 (OVCAR-8): > 100 µM (inactive)
- GI50 (SF-268): > 100 µM (inactive)
- GI50 (SNB-75): > 100 µM (inactive)
- GI50 (HL-60): > 100 µM (inactive)
- GI50 (OVCAR-4): > 100 µM (inactive)
- GI50 (MCF7): > 100 µM (inactive)
- GI50 (SK-MEL-2): > 100 µM (inactive)
- GI50 (SW-620): > 100 µM (inactive)
